Reference: patent US12522583B2, “Benzimidazole derivatives and aza-benzimidazole derivatives as Janus kinase 2 inhibitors and uses thereof” (Dana-Farber Cancer Institute, Inc., priority 2018, dated 2026)

Key:
Assay in all cases: KINOMEscan
Type in all cases: binding
Settings in all cases: read-out: percent control
ADCK3 = ADCK3 (Homo sapiens (Human), UniProt Q8NI60)
Excerpt: (§1) Example 2. In Vitro Kinase Selectivity Profiling of the Compounds of the Present Disclosure

AURKB = AURKB (Homo sapiens (Human), UniProt Q96GD4)
Excerpt: as §1

CAMK1 = CAMK1 (Homo sapiens (Human), UniProt Q14012)
Excerpt: as §1

CAMK2D = CAMK2D (Homo sapiens (Human), UniProt Q13557)
Excerpt: as §1

CDKL2 = CDKL2 (Homo sapiens (Human), UniProt Q92772)
Excerpt: as §1

CDKL3 = CDKL3 (Homo sapiens (Human), UniProt Q8IVW4)
Excerpt: as §1

CSNK1A1 = CSNK1A1 (Homo sapiens (Human), UniProt P48729)
Excerpt: as §1

CSNK1A1L = CSNK1A1L (Homo sapiens (Human), UniProt Q8N752)
Excerpt: as §1

EPHB4 = EPHB4 (Homo sapiens (Human), UniProt P54760)
Excerpt: as §1

FGFR3(G697C) = FGFR3(G697C) (Homo sapiens (Human), UniProt P22607, G697C)
Excerpt: as §1

FGFR4 = FGFR4 (Homo sapiens (Human), UniProt P22455)
Excerpt: as §1

HIPK1 = HIPK1 (Homo sapiens (Human), UniProt Q86Z02)
Excerpt: as §1

HIPK3 = HIPK3 (Homo sapiens (Human), UniProt Q9H422)
Excerpt: as §1

ICK = ICK (Homo sapiens (Human), UniProt Q9UPZ9)
Sequence of ICK (Q9UPZ9 whole entry): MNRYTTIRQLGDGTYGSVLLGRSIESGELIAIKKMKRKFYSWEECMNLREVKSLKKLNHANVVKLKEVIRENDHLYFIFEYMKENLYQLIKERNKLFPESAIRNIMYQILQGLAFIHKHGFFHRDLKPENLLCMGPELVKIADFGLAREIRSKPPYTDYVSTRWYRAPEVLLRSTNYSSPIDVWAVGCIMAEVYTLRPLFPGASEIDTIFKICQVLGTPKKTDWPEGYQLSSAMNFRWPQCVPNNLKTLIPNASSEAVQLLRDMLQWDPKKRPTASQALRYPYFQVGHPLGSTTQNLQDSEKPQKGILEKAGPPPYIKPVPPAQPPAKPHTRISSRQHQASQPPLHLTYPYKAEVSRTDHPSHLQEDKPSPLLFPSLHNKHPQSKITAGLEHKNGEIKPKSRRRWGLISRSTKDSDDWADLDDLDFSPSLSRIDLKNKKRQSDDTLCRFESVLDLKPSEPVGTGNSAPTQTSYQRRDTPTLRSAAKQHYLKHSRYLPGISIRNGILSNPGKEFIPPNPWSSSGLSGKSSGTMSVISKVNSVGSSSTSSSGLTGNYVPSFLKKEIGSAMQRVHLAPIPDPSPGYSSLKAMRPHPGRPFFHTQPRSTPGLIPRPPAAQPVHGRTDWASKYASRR
Excerpt: as §1

IRAK3 = IRAK3 (Homo sapiens (Human), UniProt Q9Y616)
Sequence of IRAK3 (Q9Y616 whole entry): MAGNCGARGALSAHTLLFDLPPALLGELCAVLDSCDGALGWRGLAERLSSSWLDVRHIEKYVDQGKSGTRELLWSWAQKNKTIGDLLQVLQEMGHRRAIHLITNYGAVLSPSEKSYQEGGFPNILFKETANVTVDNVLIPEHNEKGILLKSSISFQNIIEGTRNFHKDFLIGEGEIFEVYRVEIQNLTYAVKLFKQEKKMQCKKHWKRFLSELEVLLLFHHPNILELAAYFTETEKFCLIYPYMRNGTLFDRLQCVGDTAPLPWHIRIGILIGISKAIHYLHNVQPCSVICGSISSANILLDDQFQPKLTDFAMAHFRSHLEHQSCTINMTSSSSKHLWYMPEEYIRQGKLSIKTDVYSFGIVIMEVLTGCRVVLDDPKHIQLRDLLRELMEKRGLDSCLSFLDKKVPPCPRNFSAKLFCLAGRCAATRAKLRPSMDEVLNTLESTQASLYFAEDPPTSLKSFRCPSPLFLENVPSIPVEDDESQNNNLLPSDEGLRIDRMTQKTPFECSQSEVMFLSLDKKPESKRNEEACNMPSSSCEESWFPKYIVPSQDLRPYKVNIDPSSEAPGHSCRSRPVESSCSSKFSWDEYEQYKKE
Excerpt: as §1

JNK1 = JNK1 (Homo sapiens (Human), UniProt P45983)
Excerpt: as §1

LCK = LCK (Homo sapiens (Human), UniProt P06239)
Sequence of LCK (P06239 whole entry): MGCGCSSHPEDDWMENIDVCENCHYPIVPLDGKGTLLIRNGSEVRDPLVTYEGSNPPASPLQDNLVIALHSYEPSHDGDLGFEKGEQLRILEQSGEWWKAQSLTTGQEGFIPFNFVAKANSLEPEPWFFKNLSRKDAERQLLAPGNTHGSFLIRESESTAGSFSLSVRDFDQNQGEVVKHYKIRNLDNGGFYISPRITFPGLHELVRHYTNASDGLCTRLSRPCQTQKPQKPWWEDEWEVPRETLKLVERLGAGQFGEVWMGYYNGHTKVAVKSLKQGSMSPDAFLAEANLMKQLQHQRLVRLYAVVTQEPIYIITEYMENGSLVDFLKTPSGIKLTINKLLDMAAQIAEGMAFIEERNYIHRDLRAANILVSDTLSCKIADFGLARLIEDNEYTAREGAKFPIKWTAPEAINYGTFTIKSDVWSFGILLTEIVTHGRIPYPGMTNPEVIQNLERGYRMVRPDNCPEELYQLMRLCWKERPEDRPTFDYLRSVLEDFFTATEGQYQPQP
Excerpt: as §1

LIMK2 = LIMK2 (Homo sapiens (Human), UniProt P53671)
Excerpt: as §1

MAP4K2 = MAP4K2 (Homo sapiens (Human), UniProt Q12851)
Excerpt: as §1

MAP4K3 = MAP4K3 (Homo sapiens (Human), UniProt Q8IVH8)
Excerpt: as §1

MET = MET (Homo sapiens (Human), UniProt P08581)
Excerpt: as §1

MET(Y1235D) = MET(Y1235D) (Homo sapiens (Human), UniProt P08581, Y1235D)
Excerpt: as §1

MKK7 = MKK7 (Homo sapiens (Human), UniProt O14733)
Sequence of MKK7 (O14733 whole entry): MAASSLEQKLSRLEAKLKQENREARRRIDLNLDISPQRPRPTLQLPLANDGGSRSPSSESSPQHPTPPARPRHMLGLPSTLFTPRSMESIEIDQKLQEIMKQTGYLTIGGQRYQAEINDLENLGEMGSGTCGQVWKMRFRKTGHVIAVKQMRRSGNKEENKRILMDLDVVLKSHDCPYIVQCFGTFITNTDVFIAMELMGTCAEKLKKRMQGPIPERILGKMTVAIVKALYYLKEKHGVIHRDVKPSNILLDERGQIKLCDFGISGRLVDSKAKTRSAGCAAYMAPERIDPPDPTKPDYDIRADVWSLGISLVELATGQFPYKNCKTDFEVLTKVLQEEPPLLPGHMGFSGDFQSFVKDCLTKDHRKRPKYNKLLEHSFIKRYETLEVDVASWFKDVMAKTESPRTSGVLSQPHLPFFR
Excerpt: as §1

MKNK2 = MKNK2 (Homo sapiens (Human), UniProt Q9HBH9)
Excerpt: as §1

PAK6 = PAK6 (Homo sapiens (Human), UniProt Q9NQU5)
Excerpt: as §1

PIP5K1C = PIP5K1C (Homo sapiens (Human), UniProt O60331)
Excerpt: as §1

PYK2 = PYK2 (Homo sapiens (Human), UniProt Q14289)
Sequence of PYK2 (Q14289 whole entry): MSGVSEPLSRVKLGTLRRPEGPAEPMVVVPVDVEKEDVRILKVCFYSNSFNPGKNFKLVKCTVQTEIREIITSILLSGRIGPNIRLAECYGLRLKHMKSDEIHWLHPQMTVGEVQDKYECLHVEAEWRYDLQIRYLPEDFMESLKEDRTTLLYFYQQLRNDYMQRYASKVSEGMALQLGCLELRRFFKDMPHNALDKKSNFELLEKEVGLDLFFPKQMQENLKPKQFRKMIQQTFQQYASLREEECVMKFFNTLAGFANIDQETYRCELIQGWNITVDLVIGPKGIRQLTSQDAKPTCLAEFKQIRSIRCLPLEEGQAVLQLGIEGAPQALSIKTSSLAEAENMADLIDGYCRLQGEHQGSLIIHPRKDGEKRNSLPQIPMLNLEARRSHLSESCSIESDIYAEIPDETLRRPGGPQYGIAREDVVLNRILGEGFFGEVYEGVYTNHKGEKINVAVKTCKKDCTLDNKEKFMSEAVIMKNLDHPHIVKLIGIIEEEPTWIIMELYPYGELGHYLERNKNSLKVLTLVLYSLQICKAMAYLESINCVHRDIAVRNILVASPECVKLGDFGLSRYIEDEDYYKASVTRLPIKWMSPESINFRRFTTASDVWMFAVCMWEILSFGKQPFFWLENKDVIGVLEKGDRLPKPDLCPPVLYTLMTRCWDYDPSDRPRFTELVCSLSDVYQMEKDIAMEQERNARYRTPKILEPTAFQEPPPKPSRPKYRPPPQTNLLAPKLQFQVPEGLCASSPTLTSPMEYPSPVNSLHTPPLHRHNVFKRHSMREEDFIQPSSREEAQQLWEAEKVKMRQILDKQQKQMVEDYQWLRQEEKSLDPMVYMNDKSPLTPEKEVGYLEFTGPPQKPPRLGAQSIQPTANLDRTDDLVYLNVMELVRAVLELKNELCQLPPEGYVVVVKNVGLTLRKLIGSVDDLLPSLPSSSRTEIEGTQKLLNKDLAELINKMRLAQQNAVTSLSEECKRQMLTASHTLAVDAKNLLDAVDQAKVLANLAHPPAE
Excerpt: as §1

RIOK1 = RIOK1 (Homo sapiens (Human), UniProt Q9BRS2)
Excerpt: as §1

ROS1 = ROS1 (Homo sapiens (Human), UniProt P08922)
Excerpt: as §1

[1] = target: RSK1(Kin.Dom.2-C-terminal) (Homo sapiens (Human), UniProt Q15418)
Excerpt: as §1

SRPK1 = SRPK1 (Homo sapiens (Human), UniProt Q96SB4)
Excerpt: as §1

STK16 = STK16 (Homo sapiens (Human), UniProt O75716)
Excerpt: as §1

TSSK1B = TSSK1B (Homo sapiens (Human), UniProt Q9BXA7)
Excerpt: as §1

TXK = TXK (Homo sapiens (Human), UniProt P42681)
Excerpt: as §1

[2] = target: TYK2(JH2domain-pseudokinase) (Homo sapiens (Human), UniProt P29597)
Excerpt: as §1

ULK2 = ULK2 (Homo sapiens (Human), UniProt Q8IYT8)
Sequence of ULK2 (Q8IYT8 whole entry): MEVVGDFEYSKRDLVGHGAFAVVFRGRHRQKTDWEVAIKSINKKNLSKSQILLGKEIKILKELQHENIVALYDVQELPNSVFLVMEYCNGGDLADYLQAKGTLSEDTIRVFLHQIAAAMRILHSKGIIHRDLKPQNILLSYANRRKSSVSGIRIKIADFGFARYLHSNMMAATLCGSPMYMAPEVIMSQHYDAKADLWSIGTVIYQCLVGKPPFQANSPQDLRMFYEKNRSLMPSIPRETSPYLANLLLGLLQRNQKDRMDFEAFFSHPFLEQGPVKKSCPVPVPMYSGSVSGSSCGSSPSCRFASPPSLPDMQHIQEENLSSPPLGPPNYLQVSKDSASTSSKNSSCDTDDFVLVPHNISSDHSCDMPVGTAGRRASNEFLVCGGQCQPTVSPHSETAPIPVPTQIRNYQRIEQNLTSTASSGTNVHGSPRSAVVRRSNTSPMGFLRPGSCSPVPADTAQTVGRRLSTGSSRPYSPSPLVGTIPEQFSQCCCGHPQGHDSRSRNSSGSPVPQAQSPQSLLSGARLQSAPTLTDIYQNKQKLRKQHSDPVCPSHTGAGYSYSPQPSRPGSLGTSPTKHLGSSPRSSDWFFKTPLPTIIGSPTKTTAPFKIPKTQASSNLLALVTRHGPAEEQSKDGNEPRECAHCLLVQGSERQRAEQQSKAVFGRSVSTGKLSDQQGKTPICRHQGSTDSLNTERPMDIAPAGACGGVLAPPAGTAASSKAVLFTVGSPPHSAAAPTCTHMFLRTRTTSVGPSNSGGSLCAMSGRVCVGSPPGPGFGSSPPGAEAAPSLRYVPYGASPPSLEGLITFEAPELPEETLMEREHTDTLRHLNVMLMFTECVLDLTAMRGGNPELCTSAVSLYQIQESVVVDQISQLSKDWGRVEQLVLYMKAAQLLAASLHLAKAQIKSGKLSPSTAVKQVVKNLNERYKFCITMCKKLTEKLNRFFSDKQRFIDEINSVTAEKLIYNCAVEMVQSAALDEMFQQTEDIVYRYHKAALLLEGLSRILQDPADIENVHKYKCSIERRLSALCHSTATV
Excerpt: as §1

VRK2 = VRK2 (Homo sapiens (Human), UniProt Q86Y07)
Excerpt: as §1

WNK3 = WNK3 (Homo sapiens (Human), UniProt Q9BYP7)
Excerpt: as §1

YANK1 = YANK1 (Homo sapiens (Human), UniProt Q8WU08)
Sequence of YANK1 (Q8WU08 whole entry): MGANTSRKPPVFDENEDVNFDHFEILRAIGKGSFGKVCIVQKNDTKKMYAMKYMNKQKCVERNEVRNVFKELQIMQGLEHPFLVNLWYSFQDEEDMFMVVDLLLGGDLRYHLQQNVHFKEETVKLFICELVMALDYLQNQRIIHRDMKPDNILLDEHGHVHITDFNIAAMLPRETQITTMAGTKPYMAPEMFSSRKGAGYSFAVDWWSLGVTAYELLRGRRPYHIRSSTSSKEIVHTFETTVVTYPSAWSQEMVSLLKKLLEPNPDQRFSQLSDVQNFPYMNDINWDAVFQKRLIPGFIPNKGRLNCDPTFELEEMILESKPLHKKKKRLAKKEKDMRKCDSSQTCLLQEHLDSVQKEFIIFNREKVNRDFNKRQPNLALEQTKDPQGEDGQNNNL
Excerpt: as §1

YANK2 = YANK2 (Homo sapiens (Human), UniProt Q9NY57)
Sequence of YANK2 (Q9NY57 whole entry): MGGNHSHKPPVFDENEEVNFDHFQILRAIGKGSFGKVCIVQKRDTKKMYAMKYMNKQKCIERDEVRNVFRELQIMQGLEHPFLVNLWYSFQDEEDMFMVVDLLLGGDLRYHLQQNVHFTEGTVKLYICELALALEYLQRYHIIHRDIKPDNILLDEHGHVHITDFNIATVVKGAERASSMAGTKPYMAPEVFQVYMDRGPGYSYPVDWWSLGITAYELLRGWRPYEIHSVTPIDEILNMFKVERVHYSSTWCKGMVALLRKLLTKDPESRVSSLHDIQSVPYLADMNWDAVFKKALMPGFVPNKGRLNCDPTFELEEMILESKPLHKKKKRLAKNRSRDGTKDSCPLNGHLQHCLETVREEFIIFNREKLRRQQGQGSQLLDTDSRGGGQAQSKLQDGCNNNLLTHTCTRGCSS
Excerpt: as §1

Row | Structure (SMILES) | remaining binding at 1 µM (ADCK3) [%] | remaining binding at 1 µM (AURKB) [%] | remaining binding at 1 µM (CAMK1) [%] | remaining binding at 1 µM (CAMK2D) [%] | remaining binding at 1 µM (CDKL2) [%] | remaining binding at 1 µM (CDKL3) [%] | remaining binding at 1 µM (CSNK1A1) [%] | remaining binding at 1 µM (CSNK1A1L) [%] | remaining binding at 1 µM (EPHB4) [%] | remaining binding at 1 µM (FGFR3(G697C)) [%] | remaining binding at 1 µM (FGFR4) [%] | remaining binding at 1 µM (HIPK1) [%] | remaining binding at 1 µM (HIPK3) [%] | remaining binding at 1 µM (ICK) [%] | remaining binding at 1 µM (IRAK3) [%] | remaining binding at 1 µM (JNK1) [%] | remaining binding at 1 µM (LCK) [%] | remaining binding at 1 µM (LIMK2) [%] | remaining binding at 1 µM (MAP4K2) [%] | remaining binding at 1 µM (MAP4K3) [%] | further results
1 | CCN1CCN(Cc2ccc(Nc3nc4ccc(Oc5ccnc(NC(C)=O)c5)cc4n3C)cc2C(F)(F)F)CC1 [Compound I-2] | 85 | 49 | 83 | 100 | 1.9 | 7.6 | 72 | 86 | 100 | 98 | 100 | 56 | 85 | 100 | 91 | 79 | 18 | 100 | 100 | 71 | remaining binding at 1 µM (MET): 43%; remaining binding at 1 µM (MET(Y1235D)): 71%; remaining binding at 1 µM (MKK7): 80%; remaining binding at 1 µM (MKNK2): 82%; remaining binding at 1 µM (PAK6): 93%; remaining binding at 1 µM (PIP5K1C): 81%; remaining binding at 1 µM (PYK2): 33%; remaining binding at 1 µM (RIOK1): 100%; remaining binding at 1 µM (ROS1): 73%; remaining binding at 1 µM [1]: 93%; remaining binding at 1 µM (SRPK1): 50%; remaining binding at 1 µM (STK16): 59%; remaining binding at 1 µM (TSSK1B): 100%; remaining binding at 1 µM (TXK): 100%; remaining binding at 1 µM [2]: 100%; remaining binding at 1 µM (ULK2): 91%; remaining binding at 1 µM (VRK2): 54%; remaining binding at 1 µM (WNK3): 100%; remaining binding at 1 µM (YANK1): 100%; remaining binding at 1 µM (YANK2): 100%
2 | CCN1CCN(Cc2ccc(Nc3nc4ccc(Oc5ccnc(NC(C)=O)c5)c(C)c4n3C)cc2C(F)(F)F)CC1 [Compound I-6, N-(4-(2-(4-((4-ethylpiperazin-1-yl)methyl)-3-(trifluoromethyl)phenylamino)-1,7-dimethyl-1H-benzo[d]imidazol-6-yloxy)pyridin-2-yl)acetamide] | 100 | 81 | 93 | 85 | 0.5 | 0.4 | 100 | 100 | 90 | 66 | 100 | 81 | 76 | 82 | 91 | 90 | 1.6 | 88 | 68 | 74 | remaining binding at 1 µM (MET): 40%; remaining binding at 1 µM (MET(Y1235D)): 44%; remaining binding at 1 µM (MKK7): 94%; remaining binding at 1 µM (MKNK2): 66%; remaining binding at 1 µM (PAK6): 90%; remaining binding at 1 µM (PIP5K1C): 85%; remaining binding at 1 µM (PYK2): 8.8%; remaining binding at 1 µM (RIOK1): 100%; remaining binding at 1 µM (ROS1): 43%; remaining binding at 1 µM [1]: 100%; remaining binding at 1 µM (SRPK1): 83%; remaining binding at 1 µM (STK16): 82%; remaining binding at 1 µM (TSSK1B): 100%; remaining binding at 1 µM (TXK): 84%; remaining binding at 1 µM [2]: 76%; remaining binding at 1 µM (ULK2): 100%; remaining binding at 1 µM (VRK2): 100%; remaining binding at 1 µM (WNK3): 100%; remaining binding at 1 µM (YANK1): 93%; remaining binding at 1 µM (YANK2): 91%
